Experimental data published in publication PMC11358882, “Neuroprotective Effects of Phenolic Constituents from Drynariae Rhizoma” (Pharmaceuticals, 2024).
“And” between values parts separate entries of the source, which are not always exact repeats. Identical values can stand only once. Like-named read-outs stand apart in the source and are kept apart here.

What was measured:
AChE from electric eel = biological target: T1, AChE from electric eel (Electrophorus electricus, UniProt O42275); experiment: biochemical; format: biochemical
T1 construct: purchased Sigma-Aldrich Co., St. Louis, USA
Protocol: (§1) The AChE- and BChE-inhibitory, MTT, and Th T assays were analyzed using a UV–visible (VIS) spectrophotometer (Biotek, EPOCH2, Winooski, VT, USA), ensuring accurate measurements. For BACE1- and MAO-B-inhibitory assays, a multimode microplate reader (SpectraMax M3, Molecular Devices, San Jose, CA, USA) was employed, providing precise readings. Analytical-grade DMSO from DEAJUNG Chemical, Korea, served as a solvent in the bioassays. Reagents and solvents, including AChE from electric eel, acetylthiocholine iodide (ATCh), BChE from equine serum, S-butyrylthiocholine iodide (BTCh), 5,5′-dithiobis [2-nitrobenzoic acid] […] Additionally, the BACE1-inhibitory assay utilized the BACE1 (β-secretase) FRET assay kit from PanVera® Corporation, Madison, USA, while the MAO-B-inhibitory assay employed the MAO-B Inhibitor Screening Kit (Fluorometric) ab284511 from Abcam plc Co., Cambridge, UK.
(§2) The inhibitory activities against cholinesterases (AChE and BChE) were evaluated using a spectrophotometric method previously developed by Ellman et al.. Specifically, ATCh and BTCh were used as substrates to measure the inhibitory effects on AChE and BChE, respectively. The assay mixture consisted of 140 μL of 0.1 M sodium phosphate buffer at pH 7.8, 20 μL of a 0.38 U/mL solution of either AChE or BChE, and 20 μL of the test sample solution. This mixture was thoroughly mixed and then incubated at room temperature for 15 min. […] Reactions were initiated by adding 10 μL of 0.5 mM DTNB and 10 μL of either 0.6 mM ATCh or BTCh. ChE-inhibitory activity was monitored by measuring the formation of the yellow 5-thio-2-nitrobenzoate anion at 412 nm over 15 min (Epoch, BioTek, Winooski, VT, USA), resulting from the reaction of DTNB and thiocholine released from ATCh or BTCh. All reactions were conducted in 96-well microplates and performed in triplicate. The percentage of inhibition (%) was determined using the following formula: inhibition (%)={(Ac−As)/Ac}×100 , where Ac represents the enzyme activity in the absence of the test sample, and As represents the enzyme activity in the presence of the test sample. The ChE-inhibitory activities of each sample were quantified in terms of IC50, which was calculated from the log–dose inhibition curve.

BACE1 = biological target: T2, BACE1 (Homo sapiens, UniProt P56817); experiment: BACE1 (β-secretase) FRET inhibitory assay; format: biochemical
T2 construct: purchased PanVera Corporation, Madison, WI, USA P2985
Protocol: The BACE1 inhibition assay was conducted using the BACE1 (β-secretase) FRET Assay Kit, Red Protocol, part number P2985 (PanVera® Corporation, Madison, WI, USA), following the manufacturer’s recommended protocol with minor modifications. The assay mixture consisted of 10 μL of BACE1 (1.0 U/mL), 10 μL of substrate (750 nM Rh-[…]-Quencher in 50 mM ammonium bicarbonate), the assay buffer (50 mM sodium acetate, pH 4.5), and 10 μL of the test samples. […] The reaction mixture was incubated for 60 min at room temperature in darkness. Before measurement, a stop solution (2.5 M sodium acetate) was added to halt the reaction. BACE1 enzyme activity was assessed by monitoring the proteolysis of two fluorophores (Rh-[…]-Quencher), forming the fluorescent donor (Rh-EVNL) with increased fluorescence wavelengths at 530–545 nm (excitation) and 570–590 nm (emission), respectively. All reactions were recorded in black 96-well microplates and performed in triplicate. The percentage of inhibition (%) was calculated using the following formula: inhibition (%)=[1−(S60−S0)/(C60−C0)]×100 , where C60 represents the fluorescence of the control after incubation, C0 represents the initial fluorescence of the control, S60 represents the fluorescence of the tested sample after incubation, and S0 represents the initial fluorescence of the tested sample. The BACE1-inhibitory activities of each sample were quantified in terms of IC50, which was determined from the log–dose inhibition curve.

MAO-B = biological target: T3, MAO-B (Homo sapiens, UniProt P27338); experiment: MAO-B inhibitor screening kit (fluorometric) assay; format: biochemical; settings: isolated compounds; mean ± SD, n = 3; ND = no detection using test concentration
T3 construct: purchased Abcam plc, Cambridge, UK ab284511
T3 sequence (P27338 1-520): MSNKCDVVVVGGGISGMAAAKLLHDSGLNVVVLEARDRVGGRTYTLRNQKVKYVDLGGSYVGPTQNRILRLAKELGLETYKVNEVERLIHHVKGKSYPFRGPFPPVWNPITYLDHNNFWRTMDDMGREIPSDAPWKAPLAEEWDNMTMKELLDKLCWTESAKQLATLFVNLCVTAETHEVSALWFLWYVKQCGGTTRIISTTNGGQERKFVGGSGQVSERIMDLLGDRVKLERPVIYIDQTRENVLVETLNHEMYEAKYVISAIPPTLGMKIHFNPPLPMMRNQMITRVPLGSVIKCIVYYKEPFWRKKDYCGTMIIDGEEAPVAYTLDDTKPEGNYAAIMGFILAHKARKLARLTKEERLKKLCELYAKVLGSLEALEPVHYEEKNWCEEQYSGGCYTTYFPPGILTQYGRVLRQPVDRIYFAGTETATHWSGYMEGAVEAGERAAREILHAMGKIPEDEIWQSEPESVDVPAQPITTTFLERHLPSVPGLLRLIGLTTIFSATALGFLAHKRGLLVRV
Protocol: The MAO-B-inhibition assay was conducted using the MAO-B Inhibitor Screening Kit (Fluorometric) ab284511 (Abcam plc, Cambridge, UK), following the manufacturer’s recommended protocol with minor modifications. The enzyme solution (50 µL) and the test sample (10 µL) were adjusted as per the manual instructions. […] After mixing, samples and enzymes were incubated at 25 °C for 10 min. Subsequently, 40 μL of MAO-B substrate (comprising MAO-B assay buffer, MAO substrate, developer, and OxiRed probe) was added, followed by further incubation at 25 °C for 5 min. Fluorescence was measured using enzyme-linked immunosorbent assay within 40 min with dynamic fluorescence (Ex/Em = 535/587 nm). All reactions were recorded in black 96-well microplates and performed in triplicate. The slope for all samples, including the enzyme control (EC), was calculated by dividing the net ΔRFU (RFU2–RFU1) values by the time Δt (T2 − T1). The % relative inhibition was computed as follows: % relative inhibition=(slope of EC−slope of S)/slope of EC×100 . The MAO-B-inhibitory activities of each sample were quantified in terms of IC50, as determined from the log–dose inhibition curve.

BChE from equine serum = biological target: T4, BChE from equine serum (Equus caballus, UniProt P81908); experiment: biochemical; format: biochemical
T4 construct: BChE from equine serum; purchased Sigma-Aldrich Co., St. Louis, USA; host or cells: equine serum
Protocol: as §1, §2

β-secretase = experiment: Western blot of β-secretase levels in APP-CHO cells; format: cell-based, Chinese hamster; settings: 24 h; for reduction of β-secretase levels compared to DMSO-treated controls: 1.0 μM
Protocol: (§3) APP-CHO cells were seeded in six-well plates at a density of 6 × 10^5 cells/1000 μL of medium per well and incubated at 37 °C overnight for cell attachment. Then, the medium was replaced with FBS-free RPMI 1640 for 1 h, followed by treatment with test samples at 37 °C. After 24 h, the cells were washed with PBS and lysed in Laemmli sample buffer. The collected cell lysates were boiled at 100 °C for 10 min. For Western blot analysis, 20 μg of proteins were separated by 7.5% SDS-PAGE and transferred to a PVDF membrane using Trans-Blot® Turbo TM (Bio-Rad, Hercules, CA, USA). The membrane was blocked with 5% skim milk in PBS for 1 h and incubated with primary antibodies overnight at 4 °C. The primary antibodies used were sAPPβ antibody, BACE1 antibody, and α-tubulin antibody diluted at 1:1000, 1:1000, and 1:25,000, respectively. After washing with PBS-T (0.1% Tween 20 in PBS) three times for 10 min each, secondary antibodies, diluted to 1:2500, were incubated for 1 h. Protein detection was performed using ECL solution reagent and protein visualization (ChemiDoc^TM XRS+., Bio-Rad, Hercules, CA, USA). The signal intensity of the bands was quantified and normalized to the signal intensity of the α-tubulin band. Results were expressed as a percentage of DMSO-treated control.

sAPPβ = experiment: Western blot of sAPPβ levels in APP-CHO cells; format: cell-based, Chinese hamster; settings: 24 h; for reduction of sAPPβ levels compared to DMSO-treated controls: 1.0 μM
Protocol: as §3

[1] = system: cultured cortical neurons; set-up: method as in PMID 26299900; settings: cited from earlier work
[2] = isolated compounds, mean ± SD, n = 3, read-out: IC50 BACE1
[3] = isolated compounds, mean ± SD, n = 3, ND = no detection using test concentration, read-out: IC50 BChE
[4] = isolated compounds, mean ± SD, n = 3, ND = no detection using test concentration, read-out: IC50 AChE
[5] = isolated compounds, mean ± SD, n = 3, ND = no detection using test concentration

T4 sequence (P81908 whole entry): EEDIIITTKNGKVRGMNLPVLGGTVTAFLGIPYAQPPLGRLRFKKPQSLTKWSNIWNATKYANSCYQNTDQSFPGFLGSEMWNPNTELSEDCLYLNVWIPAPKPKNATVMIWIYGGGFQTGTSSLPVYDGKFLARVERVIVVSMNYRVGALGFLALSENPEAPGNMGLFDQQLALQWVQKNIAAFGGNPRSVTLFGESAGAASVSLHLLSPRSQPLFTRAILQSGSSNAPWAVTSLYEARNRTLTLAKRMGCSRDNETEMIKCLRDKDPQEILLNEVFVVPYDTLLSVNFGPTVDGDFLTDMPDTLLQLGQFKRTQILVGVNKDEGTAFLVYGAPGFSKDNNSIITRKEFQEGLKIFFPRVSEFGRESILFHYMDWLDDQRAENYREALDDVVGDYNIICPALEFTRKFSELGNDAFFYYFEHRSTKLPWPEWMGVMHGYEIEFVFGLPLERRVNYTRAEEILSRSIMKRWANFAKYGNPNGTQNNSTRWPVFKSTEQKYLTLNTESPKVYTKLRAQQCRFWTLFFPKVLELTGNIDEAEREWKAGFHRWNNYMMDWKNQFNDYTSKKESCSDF
T1 sequence (O42275 24-633): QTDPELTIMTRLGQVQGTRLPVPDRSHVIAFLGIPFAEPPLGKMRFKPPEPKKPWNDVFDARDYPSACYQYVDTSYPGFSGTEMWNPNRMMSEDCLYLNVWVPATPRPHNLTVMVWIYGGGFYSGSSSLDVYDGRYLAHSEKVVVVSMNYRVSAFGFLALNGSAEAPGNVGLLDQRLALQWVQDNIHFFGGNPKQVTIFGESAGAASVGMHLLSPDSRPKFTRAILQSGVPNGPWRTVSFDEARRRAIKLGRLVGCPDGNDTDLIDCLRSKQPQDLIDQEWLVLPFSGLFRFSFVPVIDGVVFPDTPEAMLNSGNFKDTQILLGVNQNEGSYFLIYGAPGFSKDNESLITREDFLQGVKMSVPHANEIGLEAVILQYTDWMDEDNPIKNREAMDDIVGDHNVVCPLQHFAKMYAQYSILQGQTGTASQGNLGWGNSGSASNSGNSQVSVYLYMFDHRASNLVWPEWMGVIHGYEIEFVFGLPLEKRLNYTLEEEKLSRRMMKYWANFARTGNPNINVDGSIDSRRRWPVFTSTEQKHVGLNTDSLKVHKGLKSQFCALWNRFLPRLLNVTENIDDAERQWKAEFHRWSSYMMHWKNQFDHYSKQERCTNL
T2 sequence (P56817 46-501): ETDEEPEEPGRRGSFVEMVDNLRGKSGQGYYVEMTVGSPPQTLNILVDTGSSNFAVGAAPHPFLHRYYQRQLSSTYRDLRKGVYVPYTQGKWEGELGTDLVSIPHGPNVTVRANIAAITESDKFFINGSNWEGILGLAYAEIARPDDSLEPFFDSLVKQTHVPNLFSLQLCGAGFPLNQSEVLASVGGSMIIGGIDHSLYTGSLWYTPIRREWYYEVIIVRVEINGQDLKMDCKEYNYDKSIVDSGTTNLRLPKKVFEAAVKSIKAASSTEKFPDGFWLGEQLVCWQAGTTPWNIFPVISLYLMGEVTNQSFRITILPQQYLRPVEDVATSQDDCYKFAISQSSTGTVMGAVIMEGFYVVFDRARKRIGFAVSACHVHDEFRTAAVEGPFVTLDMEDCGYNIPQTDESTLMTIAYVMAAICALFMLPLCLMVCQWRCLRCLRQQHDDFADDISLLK

Compound	IC50 (AChE from electric eel) [µM]	IC50 (BACE1; [2]) [µM]	IC50 (MAO-B) [µM]	IC50 (BChE from equine serum; [3]) [µM]	IC50 (AChE from electric eel; [4]) [µM]	IC50 (BChE from equine serum) [µM]	other results
COc1ccc2cc3[n+](cc2c1OC)CCc1cc2c(cc1-3)OCO2 [Berberine, berberine, reference compound]	0.119	–	–	–	–	–	–
O=C(O)/C=C/c1ccc(O[C@@H]2O[C@H](CO)[C@@H](O)[C@H](O)[C@H]2O)cc1 [Compound 1, coumaric acid 4-O-β-D-glucopyranoside]	–	> 1000	> 1000	53.8 ± 1.15	33.4 ± 0.42	–	–
O=C(O)/C=C/c1ccc(O[C@@H]2O[C@H](CO)[C@@H](O)[C@H](O)[C@H]2O)c(O)c1 [Compound 2, caffeic acid 4-O-β-D-glucopyranoside]	–	45 ± 0.48	401.3 ± 2.66	488 ± 10.1	14.77 ± 0.07	–	reduction of β-secretase expression levels (β-secretase; 0.5 μM): 40%; reduction of sAPPβ expression levels (sAPPβ; 0.5 μM): 50%; axonal regrowth effect on Aβ25–35-induced atrophy ([1]; 10 μM): significant axonal regrowth effects
COc1cc(/C=C/C(=O)O)ccc1O[C@@H]1O[C@H](CO)[C@@H](O)[C@H](O)[C@H]1O [Compound 3, lavandoside]	–	235 ± 6.86	155 ± 7.18	–	–	–	IC50 BChE (BChE from equine serum; [5]): did not demonstrate cholinesterase-inhibitory activity; IC50 AChE (AChE from electric eel; [5]): did not demonstrate cholinesterase-inhibitory activity
COc1cc(/C=C/C(=O)O)cc(OC)c1O[C@@H]1O[C@H](CO)[C@@H](O)[C@H](O)[C@H]1O [Compound 4, trans-p-sinapoyl-β-D-glucopyranoside]	–	147.4 ± 0.74	600.9 ± 3.72	30.6 ± 0.38	–	–	–
C[C@@H]1O[C@@H](O[C@H]2[C@H](Oc3cc(O)c4c(=O)ccoc4c3)O[C@H](CO)[C@@H](O)[C@@H]2O)[C@H](O)[C@H](O)[C@H]1O [Compound 5, 5,7-dihydroxychromone-7-O-neohesperidoside]	–	> 1000	–	38.8 ± 0.71	> 1000	–	–
C[C@@H]1O[C@@H](O[C@H]2[C@H](Oc3cc(O)c4c(c3)O[C@H](c3ccc(O)c(O)c3)CC4=O)O[C@H](CO)[C@@H](O)[C@@H]2O)[C@H](O)[C@H](O)[C@H]1O [Compound 8, neoeriocitrin]	31.65 ± 0.14	–	2.64 ± 0.016	–	–	30.04 ± 0.23	IC50 (BACE1): 13.7 ± 0.14 µM; axonal regrowth effect on Aβ25–35-induced atrophy ([1]; 1 and 10 μM): significant axonal regrowth effects
C[C@@H]1O[C@@H](O[C@H]2[C@H](Oc3cc(O)c4c(c3)O[C@H](c3ccc(O)cc3)CC4=O)O[C@H](CO)[C@@H](O)[C@@H]2O)[C@H](O)[C@H](O)[C@H]1O [Compound 9, naringin]	124 ± 35.3	64.95 ± 0.17	51.26 ± 0.14	–	–	252 ± 12.3	reduction of β-secretase levels compared to DMSO-treated controls (β-secretase): 40% and 30%; reduction of sAPPβ levels compared to DMSO-treated controls (sAPPβ): 30%
COc1ccc([C@@H]2CC(=O)c3c(O)cc(O[C@@H]4O[C@H](CO[C@@H]5O[C@@H](C)[C@H](O)[C@@H](O)[C@H]5O)[C@@H](O)[C@H](O)[C@H]4O)cc3O2)cc1O [Compound 10, hesperidin]	57.7 ± 5.96	55.72 ± 0.17	98.77 ± 0.14	–	–	331.77 ± 0.14	reduction of β-secretase levels compared to DMSO-treated controls (β-secretase): 30%; reduction of sAPPβ levels compared to DMSO-treated controls (sAPPβ): 30%
